Laboratory results reported in US20240217990A1 (Gilead Sciences, Inc., priority 2021, published 2024).

Columns and labels:
TLR7 = target: T1, TLR7 (Homo sapiens, UniProt Q9NYK1); assay: TLR7 human PBMC cell-based assay (antagonist, GS-986 stimulated cytokine release); conditions: human PBMCs; TLR7 agonist GS-986 400 nM, 6 hours; cytokines (IL-6 and IFNα) in supernatant; read-out: TLR-7 EC50
T1 construct: Human peripheral blood mononuclear cells (PBMCs) consist of lymphocytes, monocytes and dendritic cells that express TLR7, TLR8 and TLR9; endogenous in cells; host or cells: cryopreserved human PBMCs from healthy donors
T1 sequence (Q9NYK1 27-1049): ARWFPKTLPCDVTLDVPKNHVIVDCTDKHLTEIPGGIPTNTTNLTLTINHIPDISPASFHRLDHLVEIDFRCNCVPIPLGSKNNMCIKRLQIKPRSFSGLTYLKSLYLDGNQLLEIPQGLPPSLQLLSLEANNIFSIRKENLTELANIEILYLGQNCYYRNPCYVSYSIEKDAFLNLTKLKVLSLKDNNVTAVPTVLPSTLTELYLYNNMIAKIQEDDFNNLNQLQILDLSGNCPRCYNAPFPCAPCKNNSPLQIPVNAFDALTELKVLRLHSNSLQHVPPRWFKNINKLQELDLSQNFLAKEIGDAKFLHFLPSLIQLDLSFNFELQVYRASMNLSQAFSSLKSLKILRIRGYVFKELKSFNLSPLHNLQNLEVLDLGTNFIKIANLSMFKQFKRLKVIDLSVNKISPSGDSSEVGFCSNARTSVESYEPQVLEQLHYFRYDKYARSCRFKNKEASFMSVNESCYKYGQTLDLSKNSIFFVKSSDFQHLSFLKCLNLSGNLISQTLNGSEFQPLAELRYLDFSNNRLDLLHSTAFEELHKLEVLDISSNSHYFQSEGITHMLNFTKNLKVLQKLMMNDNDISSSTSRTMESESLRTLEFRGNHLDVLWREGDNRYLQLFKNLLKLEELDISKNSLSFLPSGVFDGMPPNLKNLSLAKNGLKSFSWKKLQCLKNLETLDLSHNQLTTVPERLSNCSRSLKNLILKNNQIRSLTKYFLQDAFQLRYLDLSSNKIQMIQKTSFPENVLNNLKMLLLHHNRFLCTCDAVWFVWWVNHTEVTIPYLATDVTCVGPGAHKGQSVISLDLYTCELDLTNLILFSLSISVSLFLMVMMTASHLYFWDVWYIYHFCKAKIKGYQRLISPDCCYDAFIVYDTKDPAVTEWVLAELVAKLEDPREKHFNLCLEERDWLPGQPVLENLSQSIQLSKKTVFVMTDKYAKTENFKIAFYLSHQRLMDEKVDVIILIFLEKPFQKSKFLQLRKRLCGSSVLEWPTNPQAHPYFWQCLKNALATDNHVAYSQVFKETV
Text: (§1) Human peripheral blood mononuclear cells (PBMCs) consist of lymphocytes, monocytes and dendritic cells that express TLR7, TLR8 and TLR9. These cells respond to TLR7, TLR8 and TLR9 ligand stimulation and produce cytokines and chemokines in vitro and in vivo. Human PBMCs are therefore suitable to be used in a cell-based assay to assess the in vitro potency of a TLR 7, 8, and/or 9 antagonist. The result is expected to be more translatable to the pharmacodynamics response in vivo than cell line-based assays.
Cryopreserved human PBMCs from healthy donors were thawed and resuspended in RPMI-1640 media with L-glutamine (Corning) supplemented with 10% Fetal Bovine Serum (Hyclone) and 1× Penicillin-Streptomycin (Corning). After counting, the cell density was adjusted to 2 million cells/ml and incubated for 1 hour at 37° C., 5% CO2 for recovery. Following the recovery, the cells were plated by adding 50 μl per well (100,000 cells) to 384-well cell culture plates (Greiner) containing 250 nl of test antagonists in 100% DMSO per well, in a 10 points dose response in quadruplicates. PBMCs were incubated in the presence of test antagonists for one hour at 37° C., 5% CO2 before being stimulated with a TLR7 or TLR9agonist. GS-986 (Gilead Sciences) was used as the TLR7 agonist at a final concentration of 400 nM. ODN-2216 (InvivoGen) was used as the TLR9 agonist at a final concentration of 3 μM. PBMCs were incubated in the presence of the test antagonist and the TLR7 (or TLR9) agonist for an additional 6 hours at 37° C., 5% CO2. At the end of the incubation, the cell culture plates were centrifuged at 500 g for 5 min, and the cell culture supernatant was collected. The level of cytokines (IL-6 and IFNα) in the supernatant was measured by electrochemiluminescence immunoassays (Mesoscale Discovery) following manufacturer's recommended protocols. The level of cytokine measured was plotted against the test antagonist concentration and fitted to a sigmoidal function to determine the EC50, which are shown below in Table 11.

TLR8 = target: T2, TLR8 (Homo sapiens, UniProt Q9NR97); assay: TLR8 human PBMC cell-based assay (antagonist, Compound A stimulated cytokine release); conditions: human PBMCs; TLR8 agonist Compound A 800 nM, 6 hours; cytokines (TNFa and IL 12p40) in supernatant; read-out: TLR-8 EC50
T2 construct: Human peripheral blood mononuclear cells (PBMCs) consist of lymphocytes, monocytes and dendritic cells that express TLR7, TLR8 and TLR9; endogenous in cells; host or cells: cryopreserved human PBMCs from healthy donors
T2 sequence (Q9NR97 27-1041): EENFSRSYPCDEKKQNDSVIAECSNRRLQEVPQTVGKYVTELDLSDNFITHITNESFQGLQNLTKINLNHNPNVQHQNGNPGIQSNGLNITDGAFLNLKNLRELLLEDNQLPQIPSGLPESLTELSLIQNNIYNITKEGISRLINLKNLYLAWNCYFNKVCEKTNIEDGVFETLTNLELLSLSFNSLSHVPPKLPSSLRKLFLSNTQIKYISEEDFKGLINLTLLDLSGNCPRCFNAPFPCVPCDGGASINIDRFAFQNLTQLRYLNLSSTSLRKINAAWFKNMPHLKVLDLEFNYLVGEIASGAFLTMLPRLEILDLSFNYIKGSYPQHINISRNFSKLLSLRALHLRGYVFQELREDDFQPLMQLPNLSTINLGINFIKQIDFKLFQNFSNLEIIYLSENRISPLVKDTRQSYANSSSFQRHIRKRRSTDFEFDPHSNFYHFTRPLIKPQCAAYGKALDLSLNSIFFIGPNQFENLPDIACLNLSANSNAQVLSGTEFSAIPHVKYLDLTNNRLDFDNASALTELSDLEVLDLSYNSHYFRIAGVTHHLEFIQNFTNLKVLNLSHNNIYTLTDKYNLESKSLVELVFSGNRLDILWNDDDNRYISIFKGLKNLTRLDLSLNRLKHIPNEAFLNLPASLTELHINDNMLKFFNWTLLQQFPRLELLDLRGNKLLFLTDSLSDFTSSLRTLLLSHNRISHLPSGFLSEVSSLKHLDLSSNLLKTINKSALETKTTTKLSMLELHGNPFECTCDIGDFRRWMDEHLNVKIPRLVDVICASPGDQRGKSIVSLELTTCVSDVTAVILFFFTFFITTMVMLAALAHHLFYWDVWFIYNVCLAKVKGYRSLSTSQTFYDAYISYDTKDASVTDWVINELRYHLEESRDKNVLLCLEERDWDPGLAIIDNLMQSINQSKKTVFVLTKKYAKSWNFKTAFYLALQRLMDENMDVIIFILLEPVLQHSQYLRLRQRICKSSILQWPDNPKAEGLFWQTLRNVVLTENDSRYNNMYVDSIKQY
Text: as §1
Cryopreserved human PBMCs from healthy donors were thawed and resuspended in RPMI-1640 media with L-glutamine (Corning) supplemented with 10% Fetal Bovine Serum (Hyclone) and 1X Penicillin-Streptomycin (Corning). After counting, the cell density was adjusted to 2 million cells/ml and incubated for 1 hour at 37° C., 5% CO2 for recovery. Following the recovery, the cells were plated by adding 50 μl per well (100,000 cells) to 384-well cell culture plates (Greiner) containing 250 nl of test antagonists in 100% DMSO per well, in a 10 points dose response in quadruplicates. PBMCs were incubated in the presence of antagonists for one hour at 37° C., 5% CO2 before being stimulated with TLR8 agonist. Compound A (Gilead Sciences, U.S. Pat. No. 10,285,990) was used as the TLR8 agonist at a final concentration of 800 nM. PBMCs were incubated in the presence of antagonist and the TLR8 agonist for an additional 6 hours at 37° C., 5% CO2. At the end of the incubation, the cell culture plates were centrifuged at 500 g for 5 min, and the cell culture supernatant was collected. The level of cytokines (TNFa and IL 12p40) in the supernatant was measured by electrochemiluminescence immunoassays (Mesoscale Discovery) following manufacturer's recommended protocols. The level of cytokine measured was plotted against the antagonist concentration and fitted to a sigmoidal function to determine the EC50, which are shown below in Table 11.

Structure (SMILES)	EC50 (TLR7) [nM]	EC50 (TLR8) [nM]
Cc1cc(-c2[nH]c3cc(C4CCC5(C4)CN(CC(N)=O)C5)sc3c2C(C)C)cn2ncnc12 (racemic) [Example 295, 2-(6-(6-Isopropyl-5-(8-methyl-[1,2,4]triazolo[1,5-a]pyridin-6-yl)-4H-thieno[3,2-b]pyrrol-2-yl)-2-azaspiro[3.4]octan-2-yl)acetamide]	0.14	1.19
Cc1cc(-c2[nH]c3cc(C4CCC5(C4)CN(CC(N)=O)C5)sc3c2C(C)C)cn2ncnc12 (single isomer, unassigned) [Example 310, 2-(6-(6-Isopropyl-5-(8-methyl-[1,2,4]triazolo[1,5-a]pyridin-6-yl)-4H-thieno[3,2-b]pyrrol-2-yl)-2-azaspiro[3.4]octan-2-yl)acetamide]	0.18	1.36
Cc1cc(-c2[nH]c3cc(C4CCC5(C4)CN(CC(N)=O)C5)sc3c2C(C)C)cn2ncnc12 (single isomer, unassigned) [Example 311, 2-(6-(6-Isopropyl-5-(8-methyl-[1,2,4]triazolo[1,5-a]pyridin-6-yl)-4H-thieno[3,2-b]pyrrol-2-yl)-2-azaspiro[3.4]octan-2-yl)acetamide]	0.57	1.82
Cc1cc(-c2[nH]c3cc(C(=O)N4CCNCC4)sc3c2C(C)C)cc(C)n1 [Example 1, [5-(2,6-dimethyl-4-pyridyl)-6-isopropyl-4H-thieno[3,2-b]pyrrol-2-yl]-piperazin-1-yl-methanone]	24.8	19.8
Cc1cc(-c2[nH]c3cc(C(=O)N4CCC(N)CC4)sc3c2C(C)C)cc(C)n1 [Example 2]	37.5	31.7
Cc1cc(-c2[nH]c3cc(C(=O)NC4CCNCC4)sc3c2C(C)C)cc(C)n1 [Example 4]	592	588
Cc1cc(-c2[nH]c3cc(C(=O)N[C@@H]4CCNC4)sc3c2C(C)C)cc(C)n1 [Example 5]	> 1000	654
Cc1cc(-c2[nH]c3cc(C(=O)N[C@H]4CCNC4)sc3c2C(C)C)cc(C)n1 [Example 6]	895	> 1000
Cc1cc(-c2[nH]c3cc(C(=O)N4CC[C@H](N)C4)sc3c2C(C)C)cc(C)n1 [Example 7]	110	35
Cc1cc(-c2[nH]c3cc(C(=O)N4CC[C@@H](N)C4)sc3c2C(C)C)cc(C)n1 [Example 8]	67.7	27.2
Cc1cc(-c2[nH]c3cc(C(=O)N4CCNC(C#N)C4)sc3c2C(C)C)cc(C)n1 (centres unmarked) [Example 9]	636	374
Cc1cc(-c2[nH]c3cc(C(=O)N(C)C4CCNCC4)sc3c2C(C)C)cc(C)n1 [Example 10]	18.3	55.4
Cc1cc(-c2[nH]c3cc(C(=O)N4CCC[C@H](N)C4)sc3c2C(C)C)cc(C)n1 [Example 11]	28.7	105
Cc1cc(-c2[nH]c3cc(C(=O)N4CCC[C@@H](N)C4)sc3c2C(C)C)cc(C)n1 [Example 12]	42.2	66.6
Cc1cc(-c2[nH]c3cc(C(=O)N4CCCNCC4)sc3c2C(C)C)cc(C)n1 [Example 13]	45.7	27.2
Cc1cc(-c2[nH]c3cc(C(=O)N4CCC5(CCNC5)C4)sc3c2C(C)C)cc(C)n1 (centres unmarked) [Example 14]	311	586
Cc1cc(-c2[nH]c3cc(C(=O)N4C5CNCC4COC5)sc3c2C(C)C)cc(C)n1 [Example 15]	60	72.9
Cc1cc(-c2[nH]c3cc(C(=O)N4CC[C@H](F)[C@@H](N)C4)sc3c2C(C)C)cc(C)n1 [Example 26]	103	
Cc1cc(-c2[nH]c3cc(C(=O)N4CCC[C@H](N)[C@@H]4C)sc3c2C(C)C)cc(C)n1 [Example 33]	11.1	
Cc1cc(-c2[nH]c3cc(C(=O)N4CC[C@H](N)C4)sc3c2C(C)C)cn(C)c1=O [Example 35]	240	
Cc1cc(-c2[nH]c3cc(C(=O)N(C)C4CCNCC4(C)C)sc3c2C(C)C)cc(C)n1 (centres unmarked) [Example 37]	10.3	
Cc1cc(-c2[nH]c3cc(C(=O)N4CCN5CCOC[C@H]5C4)sc3c2C(C)C)cc(C)n1 [Example 41]	682	
Cc1cc(-c2[nH]c3cc(C(=O)N4CCN5CCOC[C@@H]5C4)sc3c2C(C)C)cc(C)n1 [Example 42]	489	
Cc1cc(-c2[nH]c3cc(C4CCC5(CCNC5)C4)sc3c2C(C)C)cn2ncnc12 (centres unmarked) [Example 278]		10.5
